Laboratory results published in the CheMixHub viscosity set.
Values joined by “and” are separate entries in the source; they are usually repeats but may differ in a detail not shown here. Equal values may be shown once.

Assay: xn = mol fraction of the nth substance listed

ClC(Cl)(Cl)Cl + CO
Conditions | viscosity [mPa·s]
298 K, 101.3 kPa, x1 = 0.1518 | 0.719
298 K, 101.3 kPa, x1 = 0.2927 | 0.809
298 K, 101.3 kPa, x1 = 0.4346 | 0.844
298 K, 101.3 kPa, x1 = 0.5445 | 0.874
298 K, 101.3 kPa, x1 = 0.6871 | 0.875
298 K, 101.3 kPa, x1 = 0.761 | 0.858
298 K, 101.3 kPa, x1 = 0.8784 | 0.867
298.15 K, 101 kPa, x2 = 0.0367 | 0.877
298.15 K, 101 kPa, x2 = 0.0708 | 0.871
298.15 K, 101 kPa, x2 = 0.0886 | 0.869
298.15 K, 101 kPa, x2 = 0.1063 | 0.865
298.15 K, 101 kPa, x2 = 0.2 | 0.858
298.15 K, 101 kPa, x2 = 0.2104 | 0.8395
298.15 K, 101 kPa, x2 = 0.2547 | 0.857
298.15 K, 101 kPa, x2 = 0.35 | 0.854
298.15 K, 101 kPa, x2 = 0.375 | 0.8288
298.15 K, 101 kPa, x2 = 0.4226 | 0.842
298.15 K, 101 kPa, x2 = 0.46 | 0.846
298.15 K, 101 kPa, x2 = 0.4787 | 0.839
298.15 K, 101 kPa, x2 = 0.5069 | 0.8105
298.15 K, 101 kPa, x2 = 0.55 | 0.831
298.15 K, 101 kPa, x2 = 0.5618 | 0.815
298.15 K, 101 kPa, x2 = 0.6107 | 0.807
298.15 K, 101 kPa, x2 = 0.6154 | 0.7666
298.15 K, 101 kPa, x2 = 0.6934 | 0.77
298.15 K, 101 kPa, x2 = 0.7057 | 0.7387
298.15 K, 101 kPa, x2 = 0.76 | 0.764
298.15 K, 101 kPa, x2 = 0.7826 | 0.7057
298.15 K, 101 kPa, x2 = 0.7853 | 0.719
298.15 K, 101 kPa, x2 = 0.83 | 0.702
298.15 K, 101 kPa, x2 = 0.8483 | 0.6886
298.15 K, 101 kPa, x2 = 0.88 | 0.665
298.15 K, 101 kPa, x2 = 0.9029 | 0.626
298.15 K, 101 kPa, x2 = 0.9057 | 0.6477
298.15 K, 101 kPa, x2 = 0.9065 | 0.6438
298.15 K, 101 kPa, x2 = 0.95 | 0.599
298.15 K, 101 kPa, x2 = 0.9555 | 0.5806
298.15 K, 101 kPa, x2 = 0.9571 | 0.5875
298.15 K, 101 kPa, x2 = 0.9616 | 0.577
298.15 K, 101 kPa, x2 = 0.9788 | 0.5672
303.15 K, 101 kPa, x1 = 0.0355 | 0.54
303.15 K, 101 kPa, x1 = 0.1574 | 0.594
303.15 K, 101 kPa, x1 = 0.2723 | 0.665
303.15 K, 101 kPa, x1 = 0.4653 | 0.71
303.15 K, 101 kPa, x1 = 0.6066 | 0.76
303.15 K, 101 kPa, x1 = 0.7506 | 0.766
303.15 K, 101 kPa, x1 = 0.901 | 0.78
303.15 K, 101 kPa, x2 = 0.0396 | 0.8187
303.15 K, 101 kPa, x2 = 0.0862 | 0.8054
303.15 K, 101 kPa, x2 = 0.1437 | 0.7973
303.15 K, 101 kPa, x2 = 0.2352 | 0.793
303.15 K, 101 kPa, x2 = 0.3077 | 0.7919
303.15 K, 101 kPa, x2 = 0.4129 | 0.7852
303.15 K, 101 kPa, x2 = 0.531 | 0.7677
303.15 K, 101 kPa, x2 = 0.6187 | 0.7443
303.15 K, 101 kPa, x2 = 0.6838 | 0.7184
303.15 K, 101 kPa, x2 = 0.824 | 0.6435
303.15 K, 101 kPa, x2 = 0.8821 | 0.6038
303.15 K, 101 kPa, x2 = 0.9292 | 0.5669
303.15 K, 101 kPa, x2 = 0.9728 | 0.5306
308.15 K, 101 kPa, x2 = 0.0367 | 0.764
308.15 K, 101 kPa, x2 = 0.0708 | 0.756
308.15 K, 101 kPa, x2 = 0.0886 | 0.755
308.15 K, 101 kPa, x2 = 0.1063 | 0.749
308.15 K, 101 kPa, x2 = 0.2547 | 0.738
308.15 K, 101 kPa, x2 = 0.4226 | 0.724
308.15 K, 101 kPa, x2 = 0.4787 | 0.72
308.15 K, 101 kPa, x2 = 0.5618 | 0.7
308.15 K, 101 kPa, x2 = 0.6107 | 0.691
308.15 K, 101 kPa, x2 = 0.6934 | 0.656
308.15 K, 101 kPa, x2 = 0.7853 | 0.619
308.15 K, 101 kPa, x2 = 0.9029 | 0.543
308.15 K, 101 kPa, x2 = 0.9616 | 0.502
313.15 K, 101 kPa, x1 = 0.0355 | 0.54
313.15 K, 101 kPa, x1 = 0.1574 | 0.594
313.15 K, 101 kPa, x1 = 0.2723 | 0.665
313.15 K, 101 kPa, x1 = 0.4653 | 0.71
313.15 K, 101 kPa, x1 = 0.6066 | 0.76
313.15 K, 101 kPa, x1 = 0.7506 | 0.766
313.15 K, 101 kPa, x1 = 0.901 | 0.78
313.15 K, 101.33 kPa, x2 = 0.105 | 0.7595
313.15 K, 101.33 kPa, x2 = 0.193 | 0.7624
313.15 K, 101.33 kPa, x2 = 0.303 | 0.75
313.15 K, 101.33 kPa, x2 = 0.35 | 0.7427
313.15 K, 101.33 kPa, x2 = 0.51 | 0.6955
313.15 K, 101.33 kPa, x2 = 0.68 | 0.6248
313.15 K, 101.33 kPa, x2 = 0.72 | 0.605
313.15 K, 101.33 kPa, x2 = 0.79 | 0.57
313.15 K, 101.33 kPa, x2 = 0.91 | 0.505
318 K, 101.3 kPa, x1 = 0.1527 | 0.5328
318 K, 101.3 kPa, x1 = 0.2949 | 0.6044
318 K, 101.3 kPa, x1 = 0.4375 | 0.6446
318 K, 101.3 kPa, x1 = 0.5566 | 0.6729
318 K, 101.3 kPa, x1 = 0.7077 | 0.69
318 K, 101.3 kPa, x1 = 0.8931 | 0.7164
318.15 K, 101 kPa, x2 = 0.0367 | 0.672
318.15 K, 101 kPa, x2 = 0.0708 | 0.664
318.15 K, 101 kPa, x2 = 0.0886 | 0.67
318.15 K, 101 kPa, x2 = 0.1063 | 0.657
318.15 K, 101 kPa, x2 = 0.2547 | 0.643
318.15 K, 101 kPa, x2 = 0.4226 | 0.63
318.15 K, 101 kPa, x2 = 0.4787 | 0.623
318.15 K, 101 kPa, x2 = 0.5618 | 0.607
318.15 K, 101 kPa, x2 = 0.6107 | 0.598
318.15 K, 101 kPa, x2 = 0.6934 | 0.57
318.15 K, 101 kPa, x2 = 0.7853 | 0.537
318.15 K, 101 kPa, x2 = 0.9029 | 0.476
318.15 K, 101 kPa, x2 = 0.9616 | 0.44
323.15 K, 101 kPa, x1 = 0.0355 | 0.51
323.15 K, 101 kPa, x1 = 0.1574 | 0.543
323.15 K, 101 kPa, x1 = 0.2723 | 0.612
323.15 K, 101 kPa, x1 = 0.4653 | 0.642
323.15 K, 101 kPa, x1 = 0.6066 | 0.682
323.15 K, 101 kPa, x1 = 0.7506 | 0.698
323.15 K, 101 kPa, x1 = 0.901 | 0.706

[Br-].[Li+] + O
viscosity
Conditions | 293.15 K | 298.15 K | 303.15 K | 308.15 K | 313.15 K | 318.15 K | 323.15 K
100 kPa, x1 = 0.018 | – | 1.019 mPa·s | 0.916 mPa·s | 0.832 mPa·s | 0.764 mPa·s | 0.705 mPa·s | 0.656 mPa·s
100 kPa, x1 = 0.035 | – | 1.161 mPa·s | 1.052 mPa·s | 0.966 mPa·s | 0.888 mPa·s | 0.822 mPa·s | 0.763 mPa·s
100 kPa, x1 = 0.058 | – | 1.307 mPa·s | 1.185 mPa·s | 1.084 mPa·s | 0.998 mPa·s | 0.922 mPa·s | 0.857 mPa·s
100 kPa, x1 = 0.092 | – | 1.601 mPa·s | 1.452 mPa·s | 1.327 mPa·s | 1.219 mPa·s | 1.126 mPa·s | 1.045 mPa·s
100 kPa, x1 = 0.129 | – | 2.164 mPa·s | 1.972 mPa·s | 1.806 mPa·s | 1.662 mPa·s | 1.536 mPa·s | 1.427 mPa·s
100 kPa, x1 = 0.17 | – | 3.258 mPa·s | 2.945 mPa·s | 2.683 mPa·s | 2.459 mPa·s | 2.263 mPa·s | 2.093 mPa·s
100 kPa, x1 = 0.206 | – | 5.202 mPa·s | 4.669 mPa·s | 4.221 mPa·s | 3.841 mPa·s | 3.512 mPa·s | 3.225 mPa·s
100 kPa, x1 = 0.246 | – | 9.066 mPa·s | 8.028 mPa·s | 7.154 mPa·s | 6.41 mPa·s | 5.769 mPa·s | 5.198 mPa·s
101 kPa, x1 = 0.0109 | 1.079 mPa·s | – | 0.855 mPa·s | – | – | – | 0.593 mPa·s
101 kPa, x1 = 0.0353 | 1.245 mPa·s | – | 0.999 mPa·s | – | – | – | 0.694 mPa·s
101 kPa, x1 = 0.0649 | 1.472 mPa·s | – | 1.195 mPa·s | – | – | – | 0.842 mPa·s
101 kPa, x1 = 0.1 | 1.8 mPa·s | 1.6 mPa·s | 1.44 mPa·s | – | 1.18 mPa·s | – | –
101 kPa, x1 = 0.101 | 1.854 mPa·s | – | 1.523 mPa·s | – | – | – | 1.093 mPa·s
101 kPa, x1 = 0.12 | 2.11 mPa·s | 1.86 mPa·s | 1.66 mPa·s | – | 1.38 mPa·s | – | –
101 kPa, x1 = 0.131 | 2.377 mPa·s | – | 1.947 mPa·s | – | – | – | 1.408 mPa·s
101 kPa, x1 = 0.14 | 2.35 mPa·s | 2.08 mPa·s | 1.89 mPa·s | – | 1.57 mPa·s | – | –
101 kPa, x1 = 0.15 | 2.6 mPa·s | 2.34 mPa·s | 2.09 mPa·s | – | 1.72 mPa·s | – | –
101 kPa, x1 = 0.16 | 3.12 mPa·s | 2.79 mPa·s | 2.48 mPa·s | – | – | – | –
101 kPa, x1 = 0.1711 | 3.648 mPa·s | – | 2.957 mPa·s | – | – | – | 2.093 mPa·s
101 kPa, x1 = 0.19 | 4.21 mPa·s | 3.73 mPa·s | 3.34 mPa·s | – | – | – | –
101 kPa, x1 = 0.2 | 3.54 mPa·s and 5.05 mPa·s | 3.1 mPa·s and 4.45 mPa·s | 2.77 mPa·s and 3.95 mPa·s | – | – | – | –
101 kPa, x1 = 0.22 | – | 5.61 mPa·s | 5 mPa·s | – | – | – | –
101 kPa, x1 = 0.24 | – | 7.22 mPa·s | 6.36 mPa·s | – | – | – | –
101 kPa, x1 = 0.25 | – | 9.43 mPa·s | 8.1 mPa·s | – | – | – | –
